The assay relates to HCoV 229E. Briefly: HCoV 229E cytopathic effect (CPE) assay. The format is cell-based, Human Coronavirus (HCov) 229E. The settings on record: CellTiter Glo, read-out: 229 ECPE EC50. As to the method:
Compounds were assayed using standard methods against multiple coronaviral strains, including HCoV 229E and OC43 strains. The antiviral activity of compounds was calculated based on the protection of the virus-induced CPE at each concentration normalized by the virus control.
Cytopathic effect (CPE) was measured by CellTiter Glo following the manufacturer's manual. The antiviral activity of compounds was calculated based on the protection of the virus-induced CPE at each concentration normalized by the virus control.
For orientation: Protection from cytopathic effect is a common read-out in antiviral testing.

Structures are written as SMILES. Read-outs that look alike come from different tables or passages of the source. A value given as a limit tells only on which side of the number the result lay.

In the case of `COc1cccc2[nH]c(C(=O)N[C@@H](CC(C)C)C(=O)N[C@@H](C[C@@H]3CCNC3=O)C(O)C#N)cc12` (single isomer, unassigned) [134 (Isomer 1)], the EC50 – broadly, the concentration that produces a half-maximal response – (unidentified human coronavirus) was below 22 µM.
As for `COc1cccc2[nH]c(C(=O)N[C@@H](CC(C)C)C(=O)N[C@@H](C[C@@H]3CCNC3=O)C(O)C#N)cc12` (single isomer, unassigned) [135 (Isomer 2)], the EC50 is below 22 µM.
Take `COc1cccc2[nH]c(C(=O)N[C@@H](CC(C)C)C(=O)N[C@@H](C[C@@H]3CCNC3=O)C(C#N)NC(C)(C)C)cc12` (single isomer, unassigned) [323 (Isomer 1)]: the EC50 (unidentified human coronavirus) was below 22 µM.
Same read-out and setting: next, `COc1cccc2[nH]c(C(=O)N3CC4(CCCCC4)CC3C(=O)N[C@H](C#N)C[C@@H]3CCNC3=O)cc12` (single isomer, unassigned) [389A (Isomer 1)]: below 22 µM.
On the same count and under the same terms, next, `COc1cccc2[nH]c(C(=O)N[C@@H](CC(C)C)C(=O)N[C@@H](C[C@@H]3CCNC3=O)C(C#N)NCc3ccccc3)cc12` (single isomer, unassigned) [507 (Isomer 1.1)]: below 22 µM; `CCNC(C#N)[C@H](C[C@@H]1CCNC1=O)NC(=O)[C@H](CC(C)C)NC(=O)c1cc2c(OC)cccc2[nH]1` (single isomer, unassigned) [511 (Isomer 1)]: below 22 µM; `COc1cccc2[nH]c(C(=O)N3CC4(CCCCC4)CC3C(=O)N[C@H](C#N)C[C@@H]3CCCNC3=O)cc12` (single isomer, unassigned) [681 (Isomer 1)]: below 22 µM.
The same measure, in the same setting: next, `N#C[C@H](C[C@@H]1CCCNC1=O)NC(=O)C1CC2(CCC2)CN1C(=O)c1cc2cccc(Cl)c2[nH]1` (single isomer, unassigned) [729 (Isomer 1)]: below 22 µM; `CC(C)C[C@H](NC(=O)c1nc2ccccc2[nH]1)C(=O)N[C@H](C#N)C[C@@H]1CCNC1=O` [Compound 103, N-[(1S)-1-[[(1S)-1-cyano-2-[(3S)-2-oxopyrrolidin-3-yl]ethyl]carbamoyl]-3-methyl-butyl]-1H-benzimidazole-2-carboxamide]: below 22 µM.
As to `CC(C)C[C@H](NC(=O)c1nc2cccc(Cl)c2[nH]1)C(=O)N[C@H](C#N)C[C@@H]1CCNC1=O` [Compound 127], the concentration giving a half-maximal response (EC50) fell in the range of 2 to 10 µM.
`CC(C)C[C@H](NC(=O)c1nc2ncccc2[nH]1)C(=O)N[C@H](C#N)C[C@@H]1CCNC1=O` [Compound 131, N-[(1S)-1-[[(1S)-1-cyano-2-[(3S)-2-oxopyrrolidin-3-yl]ethyl]carbamoyl]-3-methyl-butyl]-1H-imidazo[4,5-b]pyridine-2-carboxamide]: where the note is “unidentified human coronavirus”, the EC50 is 2 to 10 µM.
Take `CC(C)C[C@H](NC(=O)c1nc2cccc(Cl)c2[nH]1)C(=O)N[C@H](C#N)C[C@@H]1CCNC1=O` [Compound 133]: the 50% effective concentration (EC50) is below 22 µM.
With `COc1cccc2[nH]c(C(=O)NC(CC(C)C)C(=O)NC(CC3CCNC3=O)C(O)C#N)cc12` (stereo not drawn) [Compound 134], where the note is “unidentified human coronavirus”, the concentration for a half-maximal effect (EC50) is below 22 µM.
Still for that read-out and setting: next, `COc1cccc2[nH]c(C(=O)N[C@@H](CC(C)C)C(=O)N[C@H](/C=C/S(C)(=O)=O)C[C@@H]3CCNC3=O)cc12` [Compound 136, 4-methoxy-N-[(1S)-3-methyl-1-[[(E,1S)-3-methylsulfonyl-1-[[(3S)-2-oxopyrrolidin-3-yl]methyl]allyl]carbamoyl]butyl]-1H-indole-2-carboxamide]: above 30 µM; `COc1cccc2[nH]c(C(=O)N3C[C@H](c4ccccc4)C[C@H]3C(=O)N[C@H](C#N)C[C@@H]3CCNC3=O)cc12` [Compound 171]: below 22 µM.
On to `COc1cccc2[nH]c(C(=O)N[C@@H](CC3CCCCC3)C(=O)N[C@H](C#N)C[C@@H]3CCNC3=O)cc12` [Compound 185, N-[(1S)-2-[[(1S)-1-cyano-2-[(3S)-2-oxopyrrolidin-3-yl]ethyl]amino]-1-(cyclohexylmethyl)-2-oxo-ethyl]-4-methoxy-1H-indole-2-carboxamide], for which the concentration giving a half-maximal response (EC50) (unidentified human coronavirus) was below 22 µM.
On the same count and under the same terms, next, `COc1cccc2[nH]c(C(=O)N3C[C@H]4C([C@H]3C(=O)N[C@H](C#N)C[C@@H]3CCNC3=O)C4(C)C)cc12` (stereo partly drawn) [Compound 197, (2S,5S)—N-[(1S)-1-cyano-2-[(3S)-2-oxopyrrolidin-3-yl]ethyl]-3-(4-methoxy-1H-indole-2-carbonyl)-6,6-dimethyl-3-azabicyclo[3.1.0]hexane-2-carboxamide]: below 22 µM; `COc1cccc2[nH]c(C(=O)N[C@@H](CC3CC3)C(=O)N[C@H](C#N)C[C@@H]3CCNC3=O)cc12` [Compound 205, N—((S)-1-(((S)-1-cyano-2-((S)-2-oxopyrrolidin-3-yl)ethyl)amino)-3-cyclopropyl-1-oxopropan-2-yl)-4-methoxy-1H-indole-2-carboxamide]: below 22 µM; `COc1cccc2[nH]c(C(=O)N[C@@H](CC(C)C)C(=O)N[C@@H](C[C@@H]3CCNC3=O)C(C#N)N[C@@H](C)c3ccccc3)cc12` (stereo partly drawn) [Compound 329]: below 22 µM.
On the same count and under the same terms, next, `COc1cccc2[nH]c(C(=O)N3C[C@H](c4ccccc4)CC3C(=O)N[C@H](C=O)C[C@@H]3CCNC3=O)cc12` (stereo partly drawn) [Compound 344A]: below 22 µM.
Same read-out and setting: next, `COc1cccc2[nH]c(C(=O)N[C@@H](CC(C)C)C(=O)N[C@@H](C[C@@H]3CCNC3=O)C(N)C#N)cc12` (stereo partly drawn) [Compound 344C, N-[(1S)-1-[[(1S)-2-amino-2-cyano-1-[[(3S)-2-oxopyrrolidin-3-yl]methyl]ethyl]carbamoyl]-3-methyl-butyl]-4-methoxy-1H-indole-2-carboxamide]: below 22 µM.
For the compound `COc1cccc2[nH]c(C(=O)N3C[C@H](c4ccccc4)C[C@H]3C(=O)N[C@@H](C[C@@H]3CCNC3=O)C(O)C#N)cc12` (stereo partly drawn) [Compound 345], the 50% effective concentration (EC50) (unidentified human coronavirus) is below 22 µM.
Take `CC(C)C[C@H](NC(=O)c1cc2c(OC(F)(F)F)cccc2[nH]1)C(=O)N[C@H](C#N)C[C@@H]1CCNC1=O` [Compound 361]: the EC50 (unidentified human coronavirus) is below 22 µM.
Still for that read-out and setting: next, `CC(C)C[C@H](NC(=O)c1nc2c(OC(F)(F)F)cccc2[nH]1)C(=O)N[C@H](C#N)C[C@@H]1CCNC1=O` [Compound 363]: below 22 µM.
For `N#C[C@H](C[C@@H]1CCNC1=O)NC(=O)[C@H](CC1CC1)NC(=O)c1cc2c(C3CC3)cccc2[nH]1` [Compound 375A], the concentration giving a half-maximal response (EC50) (unidentified human coronavirus) was below 22 µM.
On the same count and under the same terms, next, `CCOc1cccc2[nH]c(C(=O)N[C@@H](CC(C)C)C(=O)N[C@H](C#N)C[C@@H]3CCNC3=O)cc12` [Compound 377]: below 22 µM; `COc1cccc2[nH]c(C(=O)N3C[C@@H]4CCC[C@@H]4[C@H]3C(=O)N[C@H](C#N)C[C@@H]3CCNC3=O)cc12` [Compound 393]: below 22 µM.
Still for that read-out and setting: next, `COc1cccc2[nH]c(C(=O)N3CC4(CC4)C[C@H]3C(=O)N[C@H](C#N)C[C@@H]3CCNC3=O)cc12` [Compound 397]: below 22 µM; `COc1cccc2[nH]c(C(=O)N3CC4(CCCC4)C[C@H]3C(=O)N[C@H](C#N)C[C@@H]3CCNC3=O)cc12` [Compound 401, (S)—N—((S)-1-cyano-2-((S)-2-oxopyrrolidin-3-yl)ethyl)-2-(4-methoxy-1H-indole-2-carbonyl)-2-azaspiro[4.4]nonane-3-carboxamide]: below 22 µM; `COc1cccc2[nH]c(C(=O)N[C@@H](CC(C)(C)C)C(=O)N[C@H](C#N)C[C@@H]3CCNC3=O)cc12` [Compound 405, N-[(1S)-1-[[(1S)-1-cyano-2-[(3S)-2-oxopyrrolidin-3-yl]ethyl]carbamoyl]-3,3-dimethyl-butyl]-4-methoxy-1H-indole-2-carboxamide]: below 22 µM.

(Values after patent US11124497B1, “Inhibitors of cysteine proteases and methods of use thereof” (priority 2020, dated 2021).)
